# Test results published in patent US8889370B2, “Method of determining inhibitors of coagulation” (Siemens Healthcare Diagnostics Products GmbH, priority 2010, dated 2014).
# Read-outs that look alike come from different tables or passages of the source.
# Target: T1, bovine thrombin (Bos taurus, UniProt P00735)
# T1 construct: a lyophilized thrombin reagent consisting of bovine thrombin; purchased Siemens Healthcare Diagnostics (hirudin activity assay, thrombin reagent)
# Assay: Determination of the thrombin binding constant (Ki) of peptide aldehyde ligands, chromogenic assay with hirudin activity assay reagents, Dixon plot
# Type: biochemical
# Description: The kinetic data of the peptide aldehyde ligands were determined in chromogenic assay formats by measuring the rate of hydrolysis of chromogenic peptide substrates which compete with the peptide aldehyde ligands for binding to the active site of the particular enzyme, at various substrate concentrations and peptide aldehyde-ligand concentrations. The binding constant (Ki) was determined by a known method (Dixon, M., 1953, Biochem J, 55, 170-171).
# The thrombin binding constant was determined using the reagents of the hirudin activity assay from Siemens Healthcare Diagnostics. The hirudin activity assay comprises a lyophilized thrombin reagent consisting of bovine thrombin, a heparin inhibitor and aprotinin, a lyophilized chromogenic substrate reagent with a concentration of 4 mmol/l tos-Gly-Pro-Arg-ANBA-IPA (tosylglycyl-L-propyl-arginyl-5-amino-2-nitrobenzoyliso-propylamide) after reconstitution. The thrombin reagent was reconstituted in buffer solution (trishydroxymethylamino-methane, NaCl, pH 8.2). Dilutions of the substrate reagent were prepared with deionized water. The peptide aldehyde ligands prepared according to example 1 were dissolved in water and used as sample. The B-r-G-R—H ligand was used in a concentration range from 26.1 to 0.815 μM. The B-f-P—R—H ligand was used in a concentration range from 26.1 to 0 μM. The assays were carried out automatically in a BCS® XP coagulation analyzer (Siemens Healthcare Diagnostics, Marburg, Germany).
# A reaction mix was mixed together as follows:
# 30 μl of sample (peptide aldehyde ligand B-r-G-R—H or B-f-P—R—H),
# 150 μl of thrombin reagent,
# 50 μl of chromogenic substrate reagent (tos-Gly-Pro-Arg-ABNA-IPA).
# The reaction rate in mE/min was determined on the basis of the increase in optical density of the reaction mix at a wavelength of 405 nm. For this, the optical density of the reaction mixes was determined in time intervals of from 15 to 40 seconds for the B-f-P—R—H peptide aldehyde ligand or 5-16 seconds for the B-r-G-R—H peptide aldehyde ligand.
# Reversibly and irreversibly binding ligands can be distinguished by their reaction kinetics. Plotting 1/v, where v is the reaction rate, as a function of the ligand concentration (i) at a constant concentration (S) of a cleavable substrate produces a line. When using two or more different substrate concentrations (S1, S2 . . . SN), said lines intersect at a single point. The x axis value of this point corresponds to −Ki, with Ki corresponding to the binding constant, see, for example, Klebe, G., Wirkstoffdesign, 2nd edition, Spektrum Akademischer Verlag, Heidelberg, Germany, 2009, pages 52-62 and Dixon, M., 1953, Biochem J, 55, 170-171. With an irreversible inhibition, the curves meet at a single point on the x axis, which again corresponds to −Ki.
smiles,measurement,setting,value
"N=C(N)NCCC[C@@H](C=O)NC(=O)[C@@H]1CCCN1C(=O)[C@@H](Cc1ccccc1)NC(=O)CCC(=O)NCCCOCCOCCOCCCNC(=O)CCCC[C@@H]1SC[C@@H]2NC(=O)N[C@@H]21 [B-f-P-R-H, biotinyl-Ttds-D-Phe-Pro-Arg-H]",1/Reaction rate,"CB-f-P-R-H 0.02038 μM, Csubstrate = 0.5 mM, not in the linear region, excluded from regression",1.869 min/E
same,1/Reaction rate,"CB-f-P-R-H 0.02038 μM, Csubstrate = 2 mM",0.4138 min/E
same,1/Reaction rate,"CB-f-P-R-H 0.02038 μM, Csubstrate = 4 mM",0.3846 min/E
same,1/Reaction rate,"CB-f-P-R-H 0.04076 μM, Csubstrate = 0.5 mM, not in the linear region, excluded from regression",1.747 min/E
same,1/Reaction rate,"CB-f-P-R-H 0.04076 μM, Csubstrate = 2 mM",0.4247 min/E
same,1/Reaction rate,"CB-f-P-R-H 0.04076 μM, Csubstrate = 4 mM",0.393 min/E
same,1/Reaction rate,"CB-f-P-R-H 0.08152 μM, Csubstrate = 0.5 mM",1.565 min/E
same,1/Reaction rate,"CB-f-P-R-H 0.08152 μM, Csubstrate = 2 mM",0.4594 min/E
same,1/Reaction rate,"CB-f-P-R-H 0.08152 μM, Csubstrate = 4 mM",0.4143 min/E
same,1/Reaction rate,"CB-f-P-R-H 0.16304 μM, Csubstrate = 0.5 mM",1.711 min/E
same,1/Reaction rate,"CB-f-P-R-H 0.16304 μM, Csubstrate = 2 mM",0.521 min/E
same,1/Reaction rate,"CB-f-P-R-H 0.16304 μM, Csubstrate = 4 mM",0.4395 min/E
same,1/Reaction rate,"CB-f-P-R-H 0.20380 μM, Csubstrate = 0.5 mM",1.638 min/E
same,1/Reaction rate,"CB-f-P-R-H 0.20380 μM, Csubstrate = 2 mM",0.5061 min/E
same,1/Reaction rate,"CB-f-P-R-H 0.20380 μM, Csubstrate = 4 mM",0.4298 min/E
same,1/Reaction rate,"CB-f-P-R-H 0.32609 μM, Csubstrate = 0.5 mM",2.382 min/E
same,1/Reaction rate,"CB-f-P-R-H 0.32609 μM, Csubstrate = 2 mM",0.6613 min/E
same,1/Reaction rate,"CB-f-P-R-H 0.32609 μM, Csubstrate = 4 mM",0.5012 min/E
same,1/Reaction rate,"CB-f-P-R-H 0.40761 μM, Csubstrate = 0.5 mM",2.645 min/E
same,1/Reaction rate,"CB-f-P-R-H 0.40761 μM, Csubstrate = 2 mM",0.7008 min/E
same,1/Reaction rate,"CB-f-P-R-H 0.40761 μM, Csubstrate = 4 mM",0.5334 min/E
same,1/Reaction rate,"CB-f-P-R-H 0.65217 μM, Csubstrate = 0.5 mM",4.162 min/E
same,1/Reaction rate,"CB-f-P-R-H 0.65217 μM, Csubstrate = 2 mM",1.029 min/E
same,1/Reaction rate,"CB-f-P-R-H 0.65217 μM, Csubstrate = 4 mM",0.6737 min/E
same,1/Reaction rate,"CB-f-P-R-H 0.81522 μM, Csubstrate = 0.5 mM",4.775 min/E
same,1/Reaction rate,"CB-f-P-R-H 0.81522 μM, Csubstrate = 2 mM",1.169 min/E
same,1/Reaction rate,"CB-f-P-R-H 0.81522 μM, Csubstrate = 4 mM",0.7274 min/E
same,1/Reaction rate,"CB-f-P-R-H 1.30435 μM, Csubstrate = 0.5 mM",7.175 min/E
same,1/Reaction rate,"CB-f-P-R-H 1.30435 μM, Csubstrate = 2 mM",1.793 min/E
same,1/Reaction rate,"CB-f-P-R-H 1.30435 μM, Csubstrate = 4 mM",0.9974 min/E
same,1/Reaction rate,"CB-f-P-R-H 1.63043 μM, Csubstrate = 0.5 mM",8.491 min/E
same,1/Reaction rate,"CB-f-P-R-H 1.63043 μM, Csubstrate = 2 mM",2.164 min/E
same,1/Reaction rate,"CB-f-P-R-H 1.63043 μM, Csubstrate = 4 mM",1.183 min/E
same,1/Reaction rate,"CB-f-P-R-H 2.60870 μM, Csubstrate = 0.5 mM",13.19 min/E
same,1/Reaction rate,"CB-f-P-R-H 2.60870 μM, Csubstrate = 2 mM",3.37 min/E
same,1/Reaction rate,"CB-f-P-R-H 2.60870 μM, Csubstrate = 4 mM",1.775 min/E
same,1/Reaction rate,"CB-f-P-R-H 3.26087 μM, Csubstrate = 0.5 mM",15.77 min/E
same,1/Reaction rate,"CB-f-P-R-H 3.26087 μM, Csubstrate = 2 mM",4.026 min/E
same,1/Reaction rate,"CB-f-P-R-H 3.26087 μM, Csubstrate = 4 mM",2.13 min/E
same,1/Reaction rate,"CB-f-P-R-H 5.21739 μM, Csubstrate = 0.5 mM",24.76 min/E
same,1/Reaction rate,"CB-f-P-R-H 5.21739 μM, Csubstrate = 2 mM",6.165 min/E
same,1/Reaction rate,"CB-f-P-R-H 5.21739 μM, Csubstrate = 4 mM",3.251 min/E
same,1/Reaction rate,"CB-f-P-R-H 6.52174 μM, Csubstrate = 0.5 mM",32.28 min/E
same,1/Reaction rate,"CB-f-P-R-H 6.52174 μM, Csubstrate = 2 mM",7.856 min/E
same,1/Reaction rate,"CB-f-P-R-H 6.52174 μM, Csubstrate = 4 mM",4.089 min/E
same,1/Reaction rate,"CB-f-P-R-H 9.78261 μM, Csubstrate = 0.5 mM",43.9 min/E
same,1/Reaction rate,"CB-f-P-R-H 9.78261 μM, Csubstrate = 2 mM",11.18 min/E
same,1/Reaction rate,"CB-f-P-R-H 9.78261 μM, Csubstrate = 4 mM",5.843 min/E
same,1/Reaction rate,"CB-f-P-R-H 13.04348 μM, Csubstrate = 0.5 mM",59.12 min/E
same,1/Reaction rate,"CB-f-P-R-H 13.04348 μM, Csubstrate = 2 mM",14.43 min/E
same,1/Reaction rate,"CB-f-P-R-H 13.04348 μM, Csubstrate = 4 mM",7.611 min/E
same,1/Reaction rate,"CB-f-P-R-H 16.30435 μM, Csubstrate = 0.5 mM",74.55 min/E
same,1/Reaction rate,"CB-f-P-R-H 16.30435 μM, Csubstrate = 2 mM",18.09 min/E
same,1/Reaction rate,"CB-f-P-R-H 16.30435 μM, Csubstrate = 4 mM",9.302 min/E
same,1/Reaction rate,"CB-f-P-R-H 26.08696 μM, Csubstrate = 0.5 mM",121.7 min/E
same,1/Reaction rate,"CB-f-P-R-H 26.08696 μM, Csubstrate = 2 mM",28.41 min/E
same,1/Reaction rate,"CB-f-P-R-H 26.08696 μM, Csubstrate = 4 mM",14.59 min/E
same,Intersect of regression curve 1/reaction rate vs ligand concentration,Csubstrate 0.5 mM,0.9175 min/E
same,Slope of regression curve 1/reaction rate vs ligand concentration,Csubstrate 0.5 mM,4.5718 min/E μM
same,Intersect of regression curve 1/reaction rate vs ligand concentration,Csubstrate 2 mM,0.04059 min/E
same,Slope of regression curve 1/reaction rate vs ligand concentration,Csubstrate 2 mM,1.0812 min/E μM
same,Intersect of regression curve 1/reaction rate vs ligand concentration,Csubstrate 4 mM,0.3497 min/E
same,Slope of regression curve 1/reaction rate vs ligand concentration,Csubstrate 4 mM,0.5500 min/E μM
same,Ki,"average of three Ki values, read-out: KiM average thrombin binding constant",131 nM
same,Ki,"intersection of regression curves Csubstrate 2 and 0.5 mM, read-out: Ki2&3 thrombin binding constant",147 nM
same,Ki,"intersection of regression curves Csubstrate 4 and 0.5 mM, read-out: Ki1&3 thrombin binding constant",141 nM
same,Ki,"intersection of regression curves Csubstrate 4 and 2 mM, read-out: Ki1&2 thrombin binding constant",106 nM
same,binding of the peptide aldehyde with thrombin (reversible or irreversible),intersections of regression curves not on the x axis,reversible
